From ChEMBL document CHEMBL2429746, “Cell-based medicinal chemistry optimization of high throughput screening hits for orally active antimalarials. Part 2: hits from SoftFocus kinase and other libraries” (J Med Chem, 2013) come the findings set out here.

The term half-life denotes the time needed for the level to fall by half in the phase considered. As usually defined, the IC50 is the concentration that gives 50% inhibition.

Data set [1] relates to Plasmodium falciparum. Description: Antimalarial activity against Plasmodium falciparum infected in NOD SCID mouse after 4 days by Peters test. Format: functional. Particulars: 96 h.
The subject of data set [2] is Plasmodium falciparum. In words: Antimalarial activity against Plasmodium falciparum infected in po dosed SCID mouse assessed as reduction in parasitaemia by Peters test. Format: functional.
Data set [3] can be described thus: Half life in Sprague-Dawley rat at 5 mg/kg, po. Format: ADME, organism-based. Also on record: dose 5 mg/kg, route oral. Particulars: in vivo.
For data set [4], the system named is Plasmodium falciparum. Description: Antimalarial activity against blood stage of Plasmodium falciparum Dd2 assessed as parasite viability after 72 hrs by SYBR green dye-based assay. Format: functional, organism-based. Particulars: Dd2, 72 h.
For data set [5], the system named is Plasmodium falciparum. Description: Antimalarial activity against blood stage of Plasmodium falciparum 3D7 assessed as parasite viability after 72 hrs by SYBR green dye-based assay. Format: functional, organism-based. Particulars: 3D7, 72 h.

`O=C(O)CCc1cccc2c1B(O)OC2` displayed an ED90 in data set [1] of 0.6 mg/kg.

With `COc1ccc(-c2cc(-c3ccc(S(C)(=O)=O)cc3)cnc2N)cn1`, the ED90 in data set [2] stood at 3.6 mg/kg. The compound also gave a half-life in data set [3] of 8.7 h.

`NC1=Nc2ccc(Cl)cc2C1(O)c1ccccc1` (stereo not given): the IC50 in data set [4] stood at 507 nM; in data set [5], 216 nM.
